Reference: article PMC12475274, “Harnessing indole scaffolds to identify small-molecule IRE1α inhibitors modulating XBP1 mRNA splicing” (Nature Communications, 2025)
“Also recorded” adds a separate entry of the source.

Legend:
[1] = system: XBP1s protein in MDA-MB-231 cells; assay: Western blot of XBP1s protein level, MDA-MB-231; assay type: cell-based, human
Procedure: (§1) A549 cells and MDA-MB-231 Cells were harvested and seeded into 6-well plates with a density of 8 × 10^5 cells per well and cultured overnight. […]. Protein concentrations were measured using a BCA protein assay kit (Thermo Scientific, 23227) and all samples were diluted to the same protein concentration. Each sample with 40 μg of total protein was loaded onto a 4–15% MP stain-free gel (Bio-Rad, 4568085) and separated in tris-glycine-SDS running buffer. The proteins were transferred onto a 0.45 μm PVDF membrane (Bio-Rad, 1704274) using the Trans-Blot Turbo Transfer System with the preprogrammed standard SD protocol (up to 1.0 A; 25 V; 30 min). Membranes were blocked with 5% skim milk (Roth, T145.2) in PBST buffer, then incubated with primary antibody IRE1α (Cell Signaling Technology, #3294 s, 1:1000), XBP1s (Cell Signaling Technology, #12782 s, 1:1000) GAPDH (Proteintech, 10494-1-AP, 1:6000) overnight at 4 °C with shaking. After incubation, membranes were washed with PBST and incubated with the Goat Anti-Rabbit (Proteintech, SA00001-2, 1:6000) antibody at room temperature for 1 h. After washing with PBST, the membranes were visualized using Amersham ECL Prime Western Blotting Detection Kit (Cytiva, RPN2232) and imaged with a ChemiDoc MP imaging system (Bio-Rad).

[2] = system: IRE1α protein in A549 cells; assay: Western blot of IRE1α protein level, A549; assay type: cell-based, human
Procedure: as §1

[3] = system: IRE1α protein in MDA-MB-231 cells; assay: Western blot of IRE1α protein level, MDA-MB-231; assay type: cell-based, human
Procedure: as §1

[4] = target: T1, p-IRE1α dimerization and oligomerization (Homo sapiens, UniProt O75460); assay: DSS cross-linking assay with mass photometry; conditions: 100 μM compound, DSS crosslinking
T1 construct: Human IRE1α kinase and RNase domain (residues 547–977) was subcloned into pLIB plasmid; His tag (with TEV cleavage site) (N, cleaved yes); made in house; host or cells: Sf9 insect cells, baculovirus (Bac-to-Bac)
Procedure: Phosphorylated IRE1α (p-IRE1α) and compounds were incubated 30 min at room temperature, with a final concentration of 2 μM p-IRE1α and 100 μM of the indicated compound, in a buffer containing 20 mM HEPES, pH 7.5, 50 mM KOAc, 1 mM MgOAc2, 1 mM DTT, 0.05% v/v TritonX-100, in a total reaction volume of 20 μL. After incubation, DSS (disuccinimidyl suberate, Thermo Fisher, A39267) was added to the reaction at a final concentration of 250 μM to induce crosslinking at room temperature for 1 h. Tris (pH 7.5) was added to a final concentration of 50 mM to stop the reaction. Samples were further measured with a mass photometry instrument (Refeyn Ltd). The PBS buffer was used for the mass photometry measurement. The instrument was calibrated with BSA and TG protein mixture in PBS. Samples were diluted to a protein concentration of 100 nM with buffer before measurement. Then, 18 μL PBS buffer was added to the center of the gasket on the coverslips to check and find the focus. Afterward, 2 μL of the diluted sample was added, mixed, and measured. Data were analyzed using Discover MP software, for each sample, results from 3 individual measurements were merged.

p-IRE1α = target: T2, p-IRE1α (Homo sapiens, UniProt O75460); assay: Gel-based RNA-cleavage assay; assay type: biochemical
T2 construct: Human IRE1α kinase and RNase domain (residues 547–977) was subcloned into pLIB plasmid; His tag (with TEV cleavage site) (N, cleaved yes); made in house; host or cells: Sf9 insect cells, baculovirus (Bac-to-Bac)
Procedure: Purified p-IRE1α with a final concentration of 10 nM was preincubated with the indicated compounds for 30 min at room temperature, then 50 nM FAM and BHQ-labeled XBP1 substrate were added to the reaction. The reaction was further incubated for 45 min at room temperature and then mixed with 6× TBE loading dye (45% H2O, 40 % glycerol, 15% 10× TBE, 0.1% bromphenol blue). 5 μL sample was loaded to 15% pre-runed urea-PAGE, and the gel was run in pre-warmed (~60 °C) 1× TBE buffer buffer in the dark. The gel fluorescence was detected and imaged using the ChemiDoc MP imaging system (Bio-Rad).

HCT 116 cells = assay: Cell viability assay (CCK-8), HCT 116; assay type: cell-based, human; conditions: HCT 116; for inhibition at 50 µM: Homo sapiens, read-out: antiproliferation, inhibition at highest tested concentration
Procedure: (§2) Cells were collected and seeded into 96-well plates at a density of 2000–4000 cells per well and cultured overnight to allow cells to adhere. After adherence, cells were treated with the indicated compounds for 72 h. Then 20 μL CCK-8 solution (Vazyme, A311) was added into each well and incubated at 37 °C for 2–4 h. Absorbance was detected at a wavelength of 450 nm using a TECAN plate reader. Cell viability was calculated with the equation: Cell viability (%) = 100(Absorbance of treated cell - Absorbance of Blank control)/ (Absorbance of DMSO-treated cells - Absorbance of Blank control); Blank control: medium and CCK-8 solution, no cells.

HT-29 cells = assay: Cell viability assay (CCK-8), HT-29; assay type: cell-based, human; conditions: HT-29; for inhibition at 50 µM: Homo sapiens, read-out: antiproliferation, inhibition at highest tested concentration
Procedure: as §2

p-IRE1α dimerization = target: T3, p-IRE1α dimerization (Homo sapiens, UniProt O75460); assay: SDS-PAGE gel-based crosslinking assay
T3 construct: Human IRE1α kinase and RNase domain (residues 547–977) was subcloned into pLIB plasmid; His tag (with TEV cleavage site) (N, cleaved yes); made in house; host or cells: Sf9 insect cells, baculovirus (Bac-to-Bac)
Description: sustained inhibition effect.”
Fig. R1. (A) Gel-based cleavage assay using the same condition as FRET assay. (B) Fig.4g of current manuscript, IA107 binding affinity towards p-IRE1α in MST assay.
-Using Refeyn mass photometry of cross-linked IRE1α complexes, the authors observe that […]
However, this finding appears inconsistent with their crystallographic data showing separated RNase domains in dimeric IRE1. Since both kinase and RNase domain interactions contribute to the IRE1 dimer interface, one would expect at least some reduction in dimerization levels. It is also a bit worrying that the authors observe that one of the control compounds tested (G1749) also blocks dimerization/oligomerization in their assay (Extended Data Fig. 6d and 6e), as this compound was found not to affect the monomer/dimer equilibrium of IRE1 in PMID: 33318494.
We appreciate the Reviewer’s comments regarding the dimerization experiments. Our crystal […]
remain in the same dimer interaction interface as the apo p-IRE1α dimer. […]
observe dimerization inhibition by IA107 in the mass photometry assay nor SDS-PAGE gel-based crosslinking assay (Fig. R2A). […]
Fig. R2. […] Analyzed using the PDBePISA web server (PMID: 17681537). […]
inhibits IRE1α's RNase activity (measured as spliced XBP1 levels) in cells through engagement of IRE1α. […]

T1 sequence (O75460 547-977): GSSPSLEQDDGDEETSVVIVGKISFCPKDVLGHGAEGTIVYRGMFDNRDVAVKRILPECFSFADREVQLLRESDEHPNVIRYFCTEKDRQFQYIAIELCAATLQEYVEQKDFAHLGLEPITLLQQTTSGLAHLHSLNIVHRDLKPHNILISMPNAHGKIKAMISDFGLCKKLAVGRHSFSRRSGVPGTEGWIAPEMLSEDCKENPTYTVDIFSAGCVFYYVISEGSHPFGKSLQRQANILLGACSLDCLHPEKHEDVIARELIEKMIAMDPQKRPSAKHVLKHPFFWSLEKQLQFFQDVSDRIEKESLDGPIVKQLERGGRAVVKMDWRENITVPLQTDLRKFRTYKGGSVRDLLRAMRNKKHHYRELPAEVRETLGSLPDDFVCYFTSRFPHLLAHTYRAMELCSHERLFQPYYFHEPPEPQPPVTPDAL
T2 sequence (O75460 547-977): as above
T3 sequence (O75460 547-977): as above

Row | Structure (SMILES) | effect on ER stress-induced XBP1s protein [1] | effect on IRE1α protein level [2] | effect on IRE1α protein level [3] | effect on p-IRE1α dimerization/oligomerization [4] | inhibition of p-IRE1α RNase activity in gel-based cleavage assay (p-IRE1α) | cytotoxicity (HCT 116 cells) | inhibition at 50 µM (HCT 116 cells) | cytotoxicity (HT-29 cells) | inhibition at 50 µM (HT-29 cells) | effect on p-IRE1α dimerization (p-IRE1α dimerization)
1 | CCOC(=O)Nc1cccc2c(Oc3ncccc3-c3ccnc(N[C@H]4CCCNC4)n3)c(C)ccc12 [Compound G1749, reference compound] | partially inhibited | did not affect | did not affect | inhibited the dimerization; also recorded: interfere with the dimerization | – | – | – | – | – | –
2 | COc1ccc2c(c1)c(CCC(=O)O)c(C)n2C(=O)c1ccc(Cl)cc1 [IA01] | – | – | – | – | concentration-dependently inhibited | – | – | – | – | –
3 | COc1ccc2c(c1)c(CCC(=O)O)c(C)n2C(=O)c1ccccc1 [IA64] | – | – | – | – | inhibited p-IRE1α activity; also recorded: concentration-dependently inhibited | – | – | – | – | –
4 | Cc1c(CCC(=O)O)c2cc(Br)ccc2n1C(=O)c1ccccc1 [IA107] | – | – | – | did not inhibit the dimerization and oligomerization; also recorded: did not affect the dimerization and oligomerization | concentration-dependently inhibited | did not show cytotoxicity | < 30% | did not show cytotoxicity | < 30% | did not
5 | CCOC(=O)CCc1c(C)n(C(=O)c2ccccc2)c2ccc(Br)cc12 [IAPD1] | inhibited the XPB1s protein level | did not affect | did not affect | – | – | did not show cytotoxicity | < 30% | did not show cytotoxicity | < 30% | –
6 | Cc1ccc2c(NS(=O)(=O)c3ccccc3Cl)cccc2c1Oc1ncccc1-c1ccnc(N[C@H]2CCCNC2)n1 [KIRA8] | – | did not affect | did not affect | interfere with the dimerization; also recorded: inhibited dimerization | – | – | – | – | – | inhibited dimerization
